Test results as given in US10338078B2, “Method and apparatus for analyzing biomolecules using Raman spectroscopy” (Japan Science and Technology Agency, priority 2012, dated 2019).

What was measured:
[1] = system: target protein; conditions: cited from earlier work
[2] = target: cathepsin B (Homo sapiens, UniProt P07858); assay: inhibition of cathepsin B enzyme activity; type: biochemical; conditions: read-out: activity to inhibit cathepsin B, IC50
From the text: Persons skilled in the art can appropriately select the position to introduce the Raman label as well as the type of Raman label to introduce by considering the structure of the compound. Moreover, persons skilled in the art having general techniques in the field of organic synthesis can appropriately synthesize a Raman-labeled compound as the low-molecular-weight compound according to the present invention. This is explained with a specific example as follows. Persons skilled in the art can synthesize an AOMK derivative (hereinafter, also referred to as RAT8-AOMK) by Raman-labeling acyloxymethyl ketone (AOMK) (an inhibitor of cathepsin B) with alkyne using general techniques in the field of organic synthesis. The RAT8-AOMK binds to cathepsin B, so as to inhibit its enzyme activity. The activity of RAT8-AOMK to inhibit cathepsin B is represented by IC50=0.3 μM. RAT8-AOMK can be synthesized and obtained by reacting N-Boc-AOMK (IC50=0.05 μM) with 4-nitrophenyl-4-ethynylbenzyl carbonate. Acyloxymethyl ketone (AOMK) is known as a cysteine protease inhibitor. The principle thereof is that a cysteine residue of the active center of an enzyme protein is modified by AOMK, and thus activity as protease is diminished (see FIG. 24).

IC50 [2]	Compound	activity when modified with a fluorophore [1]
–	16F16	loses its activity
0.3 µM	C#Cc1ccc(COC(=O)N[C@@H](Cc2ccccc2)C(=O)NCC(=O)COC(=O)c2c(C)cccc2C)cc1 [RAT8-AOMK]	–
